{"source": "patent US20170273948A1", "about": "“USE OF SIGMA RECEPTOR LIGANDS IN OSTEOARTHRITIS” (LABORATORIOS DEL DR ESTEVE S.A., priority 2014, published 2017)", "key": {"[1]": {"tested_on": "osteoarthritic-induced allodynia (MIA-induced osteoarthritis)", "assay": "MIA-induced osteoarthritis in rats: mechanical (tactile) allodynia, paw withdrawal threshold to von Frey filaments", "type": "in vivo, rat", "settings": "for progressive amelioration of the basal pain (PRE) found before daily treatments: Example A, three weeks i.p. b.i.d.; for progressive amelioration of the basal pain (PRE) found before daily treatments / analgesia (analgesic effect, POST) / analgesic effect (POST): example 1 60 mg/kg, Tramadol 20 mg/kg; for analgesia (analgesic effect, POST): day 1, single treatment, i.p.; for analgesia (analgesic effect, POST) / analgesic effect (POST): 30 min after treatment; for pain after treatment discontinuation (wash out): versus initial situation; for analgesic effect (POST): day 22, after three weeks of treatment i.p. b.i.d.", "experimental": "Male Sprague-Dawley rats (Harlan, San Pietro Nastisone, Udine, Italia), weighing 50-75 g on arrival at the laboratory, were used. Animals were allowed to acclimate for one week in groups of five per cage in a room with constant temperature (21±1° C.) and relative humidity (60%), and free access to food and water ad libitum. Automatic light-on and -off allowed alternate light-dark cycles of 12 h:12 h, with light-on at 7:00 a.m. Procedures were approved by the Committee on Animal Research Ethics of ESTEVE and conformed to the guidelines of the IASP (Zimmermann, 1983). In particular, the duration of the experiments was kept as short as possible and the number of rats used was minimized.\nOsteoarthritis in rats was induced by intraarticular (i.a.) injection of monosodium iodoacetate (MIA) in the right knee joint, essentially as described by Dunham et al. (1993). After one week of acclimation, rats were briefly anesthetized with isoflurane (5% in 02 at 600 cc/min; IsoFlo®, Veterinaria ESTEVE, MI, Italy) until lack of response to a toe pinch. Surgical area was swabbed with chlorohexidine and alcohol, then a single injection of MIA (50 μl of a 40 mg/ml solution in 0.9% saline, i.e. equal to 2 mg/injection) was delivered using a 28-gauge needle inserted into the joint space of the knee through the intra-patellar ligament, by a gentle flexion of the knee. Sham animals received, in parallel, an equal volume of 0.9% sterile saline.\nThe MIA dose to obtain a prolonged, marked decrease in mechanical thresholds to von Frey filaments pressure was selected on the basis of a dose-response experiment (not shown). After recovery, animals were returned to their home cage.\nRats […] to the test conditions beforehand were assigned into wire mesh bottom cylinders (transparent metacrylate, 300 mm high×200 mm diameter) and allowed to acclimatize prior the start of the experiment. Tactile allodynia was assessed by determination of the paw withdrawal threshold (PWT) to von Frey filaments stimulation, starting 1 to 15 grams, on the plantar surface of the hind paw. Each filament was applied 3 s until a withdrawal response occurred. A single response indicated a positive response. PWTs were assessed in both the inflamed (ipsilateral) and non-inflamed (contralateral) hind paw and expressed as grams. Control thresholds in the contralateral paw were established in a similar fashion. Nociceptive thresholds were measured prior to MIA injection (Day 0) then after 2 weeks (Day 14) in order to assess allodynia. Only rats with a significant decrease in the minimal pressure (threshold) to trigger ipsilateral versus contralateral hindpaw withdrawal were included in the pharmacological groups; non-responders (noninjured animals) were considered an exclusion criteria. Each animal was used in only one experiment, after which it was sacrificed by CO2.\nOA was induced by MIA injection at day −14 in the intra-patellar ligament of the right hindpaw. Sham animals received, in parallel, 50 μl of sterile saline solution. Two weeks later, allodynic rats were characterized by a marked decrease in the minimal pressure (threshold) to trigger withdrawal of the ipsilateral hindpaw (vs. the contralateral hindpaw) when stimulated by using von Frey monofilaments. From day 1 rats received chronic treatment (i.p, b.i.d.) for three weeks (until day 22) with Example 1 or Tramadol for three weeks, and treatment was then discontinued and mechanical allodynia evaluated after 2 days and 7 days (days 24 and 29, respectively) (wash-out period) (FIG. 1).\nTwo weeks after MIA injection into the knee, rats suffering from mechanical allodynia received a chronic treatment (3 weeks i.p, b.i.d.) with Example 1 (60 mg/kg, FIG. 2A) or Tramadol (20 mg/kg, FIG. 2B). […]"}, "[2]": {"tested_on": "osteoarthritic-induced allodynia (MIA-induced osteoarthritis)", "assay": "MIA-induced osteoarthritis in rats: mechanical (tactile) allodynia, paw withdrawal threshold to von Frey filaments", "type": "in vivo, rat", "settings": "for progressive amelioration of the basal pain (PRE) found before daily treatments: Example B, i.p. b.i.d., oxycodone 2.5 mg/kg; for progressive amelioration of the basal pain (PRE) found before daily treatments / analgesia (POST): Ex.3 40 mg/kg; for analgesia (POST): day 1, single treatment, i.p., 30 min after treatment, Oxycodone 2.5 mg/kg; for analgesic effect (POST): day 29, repeated daily treatments i.p. b.i.d., Ex. 3 40 mg/kg after four weeks, Oxycodone 2.5 mg/kg after three weeks"}, "[3]": {"target": "sigma 1 (σ-1) site (Homo sapiens, UniProt Q99720)", "sequence (Q99720 whole entry)": "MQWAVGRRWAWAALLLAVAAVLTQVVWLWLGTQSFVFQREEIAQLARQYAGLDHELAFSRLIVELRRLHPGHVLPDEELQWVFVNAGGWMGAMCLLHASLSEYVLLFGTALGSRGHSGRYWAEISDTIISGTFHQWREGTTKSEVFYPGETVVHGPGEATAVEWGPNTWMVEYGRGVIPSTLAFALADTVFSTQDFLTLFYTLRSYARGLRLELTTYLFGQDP", "settings": "cited from earlier work"}, "[4]": {"target": "sigma (σ-2) site (Homo sapiens, UniProt Q5BJF2)", "sequence (Q5BJF2 whole entry)": "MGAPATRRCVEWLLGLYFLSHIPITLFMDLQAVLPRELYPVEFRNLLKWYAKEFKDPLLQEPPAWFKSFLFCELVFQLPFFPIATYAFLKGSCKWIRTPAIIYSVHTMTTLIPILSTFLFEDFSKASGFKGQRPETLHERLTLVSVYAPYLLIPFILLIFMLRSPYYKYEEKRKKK", "settings": "cited from earlier work"}, "[5]": {"settings": "listed as example 1, hydrochloride"}}, "note": "Structures can show the parent of a compound that is named as a salt."}
{"molecule": "Cc1cc(OCCN2CCOCC2)nn1-c1ccc2ccccc2c1", "note": "[Example 1, 4-{2-[5-Methyl-1-(naphthalen-2-yl)-1H-pyrazol-3-yloxy]ethyl}morpholine hydrochloride]", "values": [{"measurement": "progressive amelioration of the basal pain (PRE) found before daily treatments", "setting": "[1]", "result": "progressively ameliorates the basal pain"}, {"measurement": "analgesia (analgesic effect, POST)", "setting": "[1]; hydrochloride", "result": "~40", "unit": "%"}, {"measurement": "analgesia (analgesic effect, POST)", "setting": "[1]; [5]", "result": "around 40%"}, {"measurement": "pain after treatment discontinuation (wash out)", "setting": "[1]; day 2 after discontinuation (day 24)", "result": "still reduced"}, {"measurement": "pain after treatment discontinuation (wash out)", "setting": "[1]; day 7 after discontinuation (day 29)", "result": "went back to the initial situation"}, {"measurement": "analgesic effect (POST)", "setting": "[1]; hydrochloride", "result": 90, "unit": "%"}, {"measurement": "analgesic effect (POST)", "setting": "[1]; [5]", "result": "around 90%"}, {"measurement": "reduction of basal pain (PRE) found before daily treatments", "setting": "[1]; day 22, before first morning administration, example 1 60 mg/kg i.p. b.i.d.", "result": 80, "unit": "%"}, {"measurement": "analgesic tolerance (loss of analgesic efficacy following repeated treatment)", "setting": "[1]; repeated treatment i.p. b.i.d. for three weeks", "result": "does not induce analgesic tolerance"}]}
{"molecule": "CC(=O)N1CCN(CCOCc2ccn(-c3ccc(F)c(F)c3)n2)CC1", "note": "[Example 3, 1-(4-(2-((1-(3,4-difluorophenyl)-1H-pyrazol-3-yl)methoxy)ethyl)piperazin-1-yl)ethanone hydrochloride]", "values": [{"measurement": "progressive amelioration of the basal pain (PRE) found before daily treatments", "setting": "[2]", "result": "progressively ameliorates the basal pain"}, {"measurement": "analgesia (POST)", "setting": "[2]", "result": "around 5%"}, {"measurement": "analgesic effect (POST)", "setting": "[2]", "result": "around 60%"}, {"measurement": "reduction of basal pain (PRE) found before daily treatments", "setting": "[2]; day 30, Ex.3 40 mg/kg i.p. b.i.d.", "result": 65, "unit": "%"}]}
{"molecule": "COc1ccc2c3c1O[C@H]1C(=O)CC[C@@]4(O)[C@@H](C2)N(C)CC[C@]314", "note": "[Oxycodone, reference compound]", "values": [{"measurement": "progressive amelioration of the basal pain (PRE) found before daily treatments", "setting": "[2]", "result": "not"}, {"measurement": "analgesia (POST)", "setting": "[2]", "result": "~65", "unit": "%"}, {"measurement": "analgesic effect (POST)", "setting": "[2]", "result": "~15", "unit": "%"}]}
{"molecule": "COc1cccc(C2(O)CCCCC2CN(C)C)c1", "note": "(stereo not drawn) [Tramadol, reference compound]", "values": [{"measurement": "progressive amelioration of the basal pain (PRE) found before daily treatments", "setting": "[1]", "result": "not"}, {"measurement": "analgesia (analgesic effect, POST)", "setting": "[1]", "result": "around 90%"}, {"measurement": "analgesic effect (POST)", "setting": "[1]", "result": "~10", "unit": "%"}]}
{"molecule": "SKF 10047", "values": [{"measurement": "affinity for the sigma 1 (σ-1) site", "setting": "[3]", "result": "nanomolar"}, {"measurement": "affinity for the sigma (σ-2) site", "setting": "[4]", "result": "micromolar"}]}
